Results taken from PubChem BioAssay AID1963831 (Molecular Pharmacology Branch, DTP, NCI, 2024).

Tested on: 889142-216-R-J1-PDC complex spheroid viability
Assay: Anticancer human tumor 889142-216-R-J1-PDC patient-derived bladder carcinoma cell line growth inhibition [POLQ]
Conditions: for IC50: curve of first compound; for viability, T/C: stronger effect = lower value
Method in brief: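 Patient-derived tumour cells were co-cultured with HUVEC and mesenchymal stem cells as multicellular spheroids at 37 °C. They were treated with POLQ inhibitors (novobiocin, ART-558, RP6685) alone or combined with other agents. Top concentrations were at or near clinical Cmax (otherwise 10 microM; SN-38 at 1 microM), decreasing in half-log steps.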

[1] = second compound 0.0316 µM, first compound 0.0316 µM
[2] = second compound 0.0316 µM, first compound 0.1 µM
[3] = second compound 0.0316 µM, first compound 0.316 µM
[4] = second compound 0.0316 µM, first compound 1 µM
[5] = second compound 0.0316 µM, first compound 3.16 µM
[6] = second compound 0.0316 µM, first compound 10 µM
[7] = second compound 0.1 µM, first compound 0.0316 µM
[8] = second compound 0.1 µM, first compound 0.1 µM
[9] = second compound 0.1 µM, first compound 0.316 µM
[10] = second compound 0.1 µM, first compound 1 µM
[11] = second compound 0.1 µM, first compound 3.16 µM
[12] = second compound 0.1 µM, first compound 10 µM
[13] = second compound 0.316 µM, first compound 0.0316 µM
[14] = second compound 0.316 µM, first compound 0.1 µM
[15] = second compound 0.316 µM, first compound 0.316 µM
[16] = second compound 0.316 µM, first compound 1 µM
[17] = second compound 0.316 µM, first compound 3.16 µM
[18] = second compound 0.316 µM, first compound 10 µM
[19] = second compound 1 µM, first compound 0.0316 µM
[20] = second compound 1 µM, first compound 0.1 µM
[21] = second compound 1 µM, first compound 0.316 µM
[22] = second compound 1 µM, first compound 1 µM
[23] = second compound 1 µM, first compound 3.16 µM
[24] = second compound 1 µM, first compound 10 µM
[25] = second compound 3.16 µM, first compound 0.0316 µM
[26] = second compound 3.16 µM, first compound 0.1 µM
[27] = second compound 3.16 µM, first compound 0.316 µM
[28] = second compound 3.16 µM, first compound 1 µM
[29] = second compound 3.16 µM, first compound 3.16 µM
[30] = second compound 3.16 µM, first compound 10 µM
[31] = second compound 10 µM, first compound 0.0316 µM
[32] = second compound 10 µM, first compound 0.1 µM
[33] = second compound 10 µM, first compound 0.316 µM
[34] = second compound 10 µM, first compound 1 µM
[35] = second compound 10 µM, first compound 3.16 µM
[36] = second compound 10 µM, first compound 10 µM
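Also: spheroids exposed to compounds for seven days.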
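For viability, T/C in this document: 100% = DMSO vehicle control viability.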

## CC1COCCN1c1cc(C2(S(C)(=N)=O)CC2)nc(-c2ccnc3[nH]ccc23)n1 (stereo unspecified) + Nc1ccc(C#CCN(C(=O)Cc2ncc(C(F)(F)F)cc2C(F)(F)F)c2ccc(F)cc2)nn1
Second compound 0.0316 µM
  IC50: 2.9 µM
Second compound 0.1 µM
  IC50: 2.59 µM
Second compound 0.316 µM
  IC50: > 10 µM
Second compound 1 µM
  IC50: > 10 µM
Second compound 3.16 µM
  IC50: > 10 µM
Second compound 10 µM
  IC50: > 10 µM
[1]
  viability, T/C: 101%
[2]
  viability, T/C: 82%
[3]
  viability, T/C: 70.8%
[4]
  viability, T/C: 59.3%
[5]
  viability, T/C: 46.1%
[6]
  viability, T/C: 45%
[7]
  viability, T/C: 98%
[8]
  viability, T/C: 89%
[9]
  viability, T/C: 80.8%
[10]
  viability, T/C: 56.1%
[11]
  viability, T/C: 51.5%
[12]
  viability, T/C: 42.4%
[13]
  viability, T/C: 89.5%
[14]
  viability, T/C: 74.7%
[15]
  viability, T/C: 81.8%
[16]
  viability, T/C: 60.9%
[17]
  viability, T/C: 48.9%
[18]
  viability, T/C: 51.8%
[19]
  viability, T/C: 81.8%
[20]
  viability, T/C: 79.2%
[21]
  viability, T/C: 95.3%
[22]
  viability, T/C: 63.2%
[23]
  viability, T/C: 58.6%
[24]
  viability, T/C: 42.8%
[25]
  viability, T/C: 81.7%
[26]
  viability, T/C: 89.3%
[27]
  viability, T/C: 72.1%
[28]
  viability, T/C: 59.2%
[29]
  viability, T/C: 53.9%
[30]
  viability, T/C: 56.5%
[31]
  viability, T/C: 107%
[32]
  viability, T/C: 99.2%
[33]
  viability, T/C: 111%
[34]
  viability, T/C: 62.4%
[35]
  viability, T/C: 61%
[36]
  viability, T/C: 48.4%

## Cn1ncnc1[C@H]1c2n[nH]c(=O)c3cc(F)cc(c23)N[C@@H]1c1ccc(F)cc1 + COC1C(OC(N)=O)C(O)C(Oc2ccc3c(O)c(NC(=O)c4ccc(O)c(CC=C(C)C)c4)c(=O)oc3c2C)OC1(C)C
Second compound 0.0316 µM
  IC50: > 0.1 µM
Second compound 0.1 µM
  IC50: > 0.1 µM
Second compound 0.316 µM
  IC50: > 0.1 µM
Second compound 1 µM
  IC50: > 0.1 µM
Second compound 3.16 µM
  IC50: > 0.1 µM
Second compound 10 µM
  IC50: > 0.1 µM
Second compound 0.0316 µM, first compound 0.000316 µM
  viability, T/C: 97%
Second compound 0.0316 µM, first compound 0.001 µM
  viability, T/C: 95%
Second compound 0.0316 µM, first compound 0.00316 µM
  viability, T/C: 93.1%
Second compound 0.0316 µM, first compound 0.01 µM
  viability, T/C: 80.6%
[1]
  viability, T/C: 73.3%
[2]
  viability, T/C: 76.8%
Second compound 0.1 µM, first compound 0.000316 µM
  viability, T/C: 108%
Second compound 0.1 µM, first compound 0.001 µM
  viability, T/C: 92.7%
Second compound 0.1 µM, first compound 0.00316 µM
  viability, T/C: 74.2%
Second compound 0.1 µM, first compound 0.01 µM
  viability, T/C: 73.7%
[7]
  viability, T/C: 73.4%
[8]
  viability, T/C: 72.5%
Second compound 0.316 µM, first compound 0.000316 µM
  viability, T/C: 90.8%
Second compound 0.316 µM, first compound 0.001 µM
  viability, T/C: 87.8%
Second compound 0.316 µM, first compound 0.00316 µM
  viability, T/C: 90.9%
Second compound 0.316 µM, first compound 0.01 µM
  viability, T/C: 91.9%
[13]
  viability, T/C: 85%
[14]
  viability, T/C: 66.6%
Second compound 1 µM, first compound 0.000316 µM
  viability, T/C: 88.9%
Second compound 1 µM, first compound 0.001 µM
  viability, T/C: 77.4%
Second compound 1 µM, first compound 0.00316 µM
  viability, T/C: 89.2%
Second compound 1 µM, first compound 0.01 µM
  viability, T/C: 117%
[19]
  viability, T/C: 85%
[20]
  viability, T/C: 79.6%
Second compound 3.16 µM, first compound 0.000316 µM
  viability, T/C: 97.9%
Second compound 3.16 µM, first compound 0.001 µM
  viability, T/C: 100%
Second compound 3.16 µM, first compound 0.00316 µM
  viability, T/C: 103%
Second compound 3.16 µM, first compound 0.01 µM
  viability, T/C: 83.9%
[25]
  viability, T/C: 71.5%
[26]
  viability, T/C: 74.1%
Second compound 10 µM, first compound 0.000316 µM
  viability, T/C: 72.9%
Second compound 10 µM, first compound 0.001 µM
  viability, T/C: 115%
Second compound 10 µM, first compound 0.00316 µM
  viability, T/C: 89.8%
Second compound 10 µM, first compound 0.01 µM
  viability, T/C: 119%
[31]
  viability, T/C: 80.4%
[32]
  viability, T/C: 59.6%

## O=c1[nH]cc(F)c(=O)[nH]1 + COC1C(OC(N)=O)C(O)C(Oc2ccc3c(O)c(NC(=O)c4ccc(O)c(CC=C(C)C)c4)c(=O)oc3c2C)OC1(C)C
Second compound 0.0316 µM
  IC50: > 10 µM
Second compound 0.1 µM
  IC50: > 10 µM
Second compound 0.316 µM
  IC50: > 10 µM
Second compound 1 µM
  IC50: > 10 µM
Second compound 3.16 µM
  IC50: > 10 µM
Second compound 10 µM
  IC50: > 10 µM
[1]
  viability, T/C: 98.8%
[2]
  viability, T/C: 99.2%
[3]
  viability, T/C: 94.5%
[4]
  viability, T/C: 75%
[5]
  viability, T/C: 74%
[6]
  viability, T/C: 70.6%
[7]
  viability, T/C: 121%
[8]
  viability, T/C: 107%
[9]
  viability, T/C: 75.3%
[10]
  viability, T/C: 67.2%
[11]
  viability, T/C: 75.2%
[12]
  viability, T/C: 77.5%
[13]
  viability, T/C: 112%
[14]
  viability, T/C: 113%
[15]
  viability, T/C: 95.1%
[16]
  viability, T/C: 83.6%
[17]
  viability, T/C: 85.8%
[18]
  viability, T/C: 72.6%
[19]
  viability, T/C: 106%
[20]
  viability, T/C: 123%
[21]
  viability, T/C: 92.5%
[22]
  viability, T/C: 78.8%
[23]
  viability, T/C: 77.6%
[24]
  viability, T/C: 67.8%
[25]
  viability, T/C: 112%
[26]
  viability, T/C: 90.2%
[27]
  viability, T/C: 73.3%
[28]
  viability, T/C: 79.3%
[29]
  viability, T/C: 78.9%
[30]
  viability, T/C: 78%
[31]
  viability, T/C: 90.5%
[32]
  viability, T/C: 103%
[33]
  viability, T/C: 87.8%
[34]
  viability, T/C: 89.7%
[35]
  viability, T/C: 70.5%
[36]
  viability, T/C: 69.8%
